Patent US20240109934A1, “ANTIBIOTICS WITH IMPROVED DRUG RESISTANCE PROFILE” (priority 2021, published 2024)
Converted amounts (≈) assume the structure as drawn. Where two headings read alike, the source gives them in different places.

Experiments:
[1] = Mouse MTD / tolerability; details: mouse, in vivo, ip, 50 mg/kg
Experimental: The protocol was approved by the IACUC at the University of Illinois at Urbana-Champaign (Protocol Number: 16144 and 19181). In these studies, 10- to 12-week-old female C57BL/6 mice purchased from Charles River were used. The maximum tolerated dose (MTD) of single compound was determined first. […] All the mice were monitored for signs of toxicity for 2 weeks. For multiple doses, the compound was given by daily IP for 4 consecutive days, and mice were monitored for signs of toxicity for 1 month. MTD was the highest dosage with acceptable toxicity (e.g., <20% weight loss).

[2] = tested on: human foreskin fibroblasts (HFF-1); assay: Cell viability, Alamar Blue assay; assay type: cell-based; details: 72 h incubation, error SEM n = 2, read-out: IC50, Mammalian Toxicity in HFF-1
Experimental: Cell Culture. HFF-1 cells were obtained from ATCC. HFF-1 cells were grown in DMEM with 15% fetal bovine serum (Gemini Benchmark, Cat #100-106), 100 U/mL penicillin, and 100 μg/mL streptomycin. All cells were cultured at 37° C. in a 5% CO2 environment. Media was prepared by the University of Illinois School of Chemical Sciences Cell Media Facility.
Cell Viability. Cells were harvested, seeded in a 96 well-plate and allowed to adhere. Cells were treated with investigational compounds in DMSO (1% final concentration). Cells were incubated for 72 h before viability was assessed by the Alamar Blue Assay. Raptinal ([…]) was used as a dead control.

[3] = tested on: S. aureus ATCC 29213; assay: Resistance frequency, large inoculum method; assay type: cell-based; details: head-to-head with FA, 2×-32× the MIC
Experimental: Selection of Resistant Mutants. Resistant mutants were selected via the large inoculum method. Briefly, S. aureus ATCC 29213 (1×10^9 CFU) were plated on 100 mm plates of LB agar containing 4, 2, 1, 0.5, and 0.25 μg/mL.

[4] = tested on: S. aureus 29213; assay: MIC shift with 50% human serum; assay type: cell-based; details: S. aureus 29213, 50% human serum vs none
Experimental: Antimicrobial Susceptibility Tests. Susceptibility testing was performed in biological triplicate, using the micro-dilution broth method as outlined by the Clinical and Laboratory Standards Institute. […] Human serum (Ultrafiltrate, unspecified gender, 30K Dalton membrane filtered) was purchased from BioIVT (Hicksville, NY).

[5] = tested on: S. aureus ATCC 29213; assay: MIC by micro-dilution broth method (CLSI); assay type: cell-based
[6] = Mouse liver microsome stability assay; assay type: in vitro ADME; details: 3 h at 37° C., LC-MS/MS, ± SEM of 3 biological replicates
Experimental: Mouse Liver Microsome Stability Assay. A mixture of PBS (pH 7.4), NADPH regenerating system solution A (Corning Life Sciences), and NADPH regenerating system solution B (Corning Life Sciences) was incubated at 37° C. in a shaking incubator for 5 min. Next, compound was added in DMSO (final concentration 50 μM, 0.5% DMSO) before ice-cold mouse liver microsomes (Thermo Fisher, male CD-1 mice, pooled) were added (final protein concentration of 1 mg/mL). An aliquot was immediately removed, quenched with an equal volume of 100 μM internal standard and centrifuged at 13,000 rcf for 3 min. The reactions were incubated at 37° C. in a shaking incubator for 3 h. A second aliquot was removed and quenched. Samples were analyzed with the 5500 QTRAP LC/MS/MS system (Sciex, Framingham, MA) in Metabolomics Lab of Roy J. Carver Biotechnology Center, University of Illinois at Urbana-Champaign. Software Analyst 1.6.2 was used for data acquisition and analysis. The 1200 series HPLC system (Agilent Technologies, Santa Clara, CA) includes a degasser, an autosampler, and a binary pump. The LC separation was performed on an Agilent Sb-Aq column (4.6×50 mm, […]) with mobile phase A (0.1% formic acid in water) and mobile phase B (0.1% formic acid in acetonitrile). The flow rate was 0.3 mL/min. The linear gradient was as follows: 0-3 min, 100% A; 10-16 min, 5% A; 16.5-22 min, 100% A. The autosampler was set at 10° C. The injection volume was 1 μL. Mass spectra were acquired under both positive (ion spray voltage was +5500 V) and negative (ion spray voltage was −4500 V) electrospray ionization (ESI). The source temperature was 450° C. The curtain gas, ion source gas 1, and ion source gas 2 were 33, 65, and 60 psi, respectively. Multiple reaction monitoring (MRM) was used for quantitation.

Row | Compound | Tolerability [1] | IC50 [2] | IC50 ([2]; Homo sapiens, HFF-1, 72 h) | Resistance frequency relative to FA [3] | Fold Change Increase in MIC with 50% Human Serum [4] | Antibacterial activity relative to FA ([5]; S. aureus ATCC 29213 MIC) | MIC ([5]; Staphylococcus aureus, ATCC29213, WT S. aureus ATCC 29213, n = 3, read-out: MIC Without Human Serum) | Metabolic Stability in Mouse Liver Microsomes (percent remaining) [6]
1 | CC(=O)O[C@H]1C[C@@]2(C)[C@@H](C[C@@H](O)[C@H]3[C@@]4(C)CC[C@@H](O)[C@@H](C)[C@@H]4CC[C@@]32C)/C1=C(\CCC=C(C)C)C(=O)O [Sodium fusidate, reference compound] | well tolerated |  |  |  |  |  |  | 
2 | CC(=O)O[C@H]1C[C@@]2(C)[C@@H](C[C@@H](O)[C@H]3[C@@]4(C)CC[C@@H](O)[C@@H](C)[C@@H]4CC[C@@]32C)/C1=C(\CCC=C(Br)Br)C(=O)O [Compound 16, (Z)-2-((3R,4S,5S,8S,9S,10S,11R,13R,14S,16S)-16-acetoxy-3,11-dihydroxy-4,8,10,14-tetramethylhexadecahydro-17H-cyclopenta[a]phenanthren-17-ylidene)-6,6-dibromohex-5-enoic acid] |  | 75 ± 3 µM | > 50 µM | worse resistance frequency relative to FA | 32X | equipotent activity to FA | 0.125 µg/mL (≈ 0.193 µM) | 88 ± 2%
